Assay results from US11965039B2, “Compstatin analogues and their medical uses” (priority 2018, dated 2024).
pIC50: −log10 of the molar value. Read-outs that look alike come from different tables or passages of the source. Positions of bridges follow the written chain, without caps; N, C: chain ends. Non-standard residues stand in square brackets, D forms with d. Residues, ends and D or L forms follow the SMILES beside them. Sar = CNCC(=O)O

Tested on: classical complement pathway
Assay: In vitro haemolysis assay (inhibition of classical complement pathway)
Format: cell-based, human
Conditions: human serum, sensitized sheep red blood cells
Description: The in vitro effect of the compounds of the present invention was assessed by measuring their inhibitory effect of the classical complement pathway in a haemolysis assay. Briefly, compounds of the present invention and reference compounds were dissolved in DMSO and diluted in Tris/Casein Assay Buffer (10 mM Tris, 145 mM NaCl, 0.5 mM MgCl2, 0.15 mM CaCl2), and 0.1% W/V Casein, adjusted to pH 7.4) as 9-point serial dilutions in a 96 well plate. Sensitized sheep red blood cells (RBC) coated with rabbit anti-sheep erythrocyte antiserum (Complement Technology, Inc., TX, USA) were washed in Tris/Casein Assay Buffer. […] from each well of diluted compound was added to a 96-well plate containing 50 μL diluted human serum (Complement Technology, Inc., TX, USA) and incubated for 15 minutes at room temperature. The serum dilution factor was optimized for every serum batch to obtain 70-90% of maximal haemolysis using the protocol. Then 50 μL sensitized sheep red blood cells were added to all wells (10^7 per well). After 30 minutes of incubation at 37 QC with gentle agitation, the reaction was stopped by addition of 50 μL Tris STOP Buffer per well (10 mM EDTA, 10 mM Tris, 145 mM NaCl adjusted to pH 7.4). The RBCs were then removed by centrifugation and the resulting supernatant measured for hemolysis by absorbance at 405 nm. The response was normalized relative to a positive and negative control (vehicle) to calculate the IC50 from the concentration response curve using the 4-parameter logistic (4PL) nonlinear model for curve fitting.

[1] = Table 3, given as upper bounds, read-out: IC50, inhibition of hemolysis
[2] = Table 4, valine 3 vs isoleucine 3 pairs, read-out: CP hemolysis IC50

Row | SMILES | pIC50 [1] | pIC50 [2]
1 | CC[C@H](C)[C@H](NC(C)=O)C(=O)N[C@H]1CSSC[C@@H](C(=O)N(C)CC(N)=O)NC(=O)[C@H](CCCNC(=N)N)NC(=O)[C@H](Cc2c[nH]cn2)NC(=O)[C@H](CCC(=O)O)NC(=O)CNC(=O)[C@H](Cc2c[nH]c3ccccc23)NC(=O)[C@H](CC(=O)O)NC(=O)[C@H](CCC(N)=O)NC(=O)[C@H](Cc2c[nH]c3ccccc23)NC(=O)[C@H]([C@@H](C)CC)NC1=O [Compound 13] (Ac-ICIWQDWGEHRC[Sar]-NH2; disulfide 2-12) | > 7.00 | –
2 | CC[C@H](C)[C@H](NC(C)=O)C(=O)N[C@H]1CSSC[C@@H](C(=O)N[C@H](C(N)=O)[C@@H](C)O)NC(=O)[C@H](CCCNC(=N)N)NC(=O)[C@H](Cc2c[nH]cn2)NC(=O)[C@H](CCC(=O)O)NC(=O)CNC(=O)[C@H](Cc2c[nH]c3ccccc23)NC(=O)[C@H](CCC(=O)O)NC(=O)[C@H](CCC(N)=O)NC(=O)[C@H](Cc2c[nH]c3ccccc23)NC(=O)[C@H]([C@@H](C)CC)NC1=O [Compound 16] (Ac-ICIWQEWGEHRCT-NH2; disulfide 2-12) | > 7.00 | –
3 | CC[C@H](C)[C@H](NC(C)=O)C(=O)N[C@H]1CSSC[C@@H](C(=O)N[C@H](C(N)=O)[C@@H](C)O)NC(=O)[C@H](CCCNC(=N)N)NC(=O)[C@H](Cc2c[nH]cn2)NC(=O)[C@H](CC(=O)O)NC(=O)CNC(=O)[C@H](Cc2c[nH]c3ccccc23)NC(=O)[C@H](CC(=O)O)NC(=O)[C@H](CCC(N)=O)NC(=O)[C@H](Cc2c[nH]c3ccccc23)NC(=O)[C@H]([C@@H](C)CC)NC1=O [Compound 17] (Ac-ICIWQDWGDHRCT-NH2; disulfide 2-12) | > 7.00 | –
4 | CC[C@H](C)[C@H](NC(C)=O)C(=O)N[C@H]1CSSC[C@@H](C(=O)N[C@H](C(N)=O)[C@@H](C)O)NC(=O)[C@H](CCCNC(=N)N)NC(=O)[C@H](Cc2c[nH]cn2)NC(=O)[C@H](CCCNC(=N)N)NC(=O)CNC(=O)[C@H](Cc2c[nH]c3ccccc23)NC(=O)[C@H](CC(=O)O)NC(=O)[C@H](CCC(N)=O)NC(=O)[C@H](Cc2c[nH]c3ccccc23)NC(=O)[C@H]([C@@H](C)CC)NC1=O [Compound 18] (Ac-ICIWQDWGRHRCT-NH2; disulfide 2-12) | > 7.00 | –
5 | CC[C@H](C)[C@H](NC(C)=O)C(=O)N[C@H]1CSSC[C@@H](C(=O)N[C@H](C(N)=O)[C@@H](C)O)NC(=O)[C@H](CO)NC(=O)[C@H](Cc2c[nH]cn2)NC(=O)[C@H](C)NC(=O)CNC(=O)[C@H](Cc2c[nH]c3ccccc23)NC(=O)[C@H](CC(=O)O)NC(=O)[C@H](CCC(N)=O)NC(=O)[C@H](Cc2c[nH]c3ccccc23)NC(=O)[C@H]([C@@H](C)CC)NC1=O [Compound 19] (Ac-ICIWQDWGAHSCT-NH2; disulfide 2-12) | > 6.60 | 6.85
6 | CC[C@H](C)[C@H](NC(C)=O)C(=O)N[C@H]1CSSC[C@@H](C(=O)N[C@H](C(N)=O)[C@@H](C)O)NC(=O)[C@H](CO)NC(=O)[C@H](Cc2c[nH]cn2)NC(=O)[C@H](CCC(=O)O)NC(=O)CNC(=O)[C@H](Cc2c[nH]c3ccccc23)NC(=O)[C@H](CC(=O)O)NC(=O)[C@H](CCC(N)=O)NC(=O)[C@H](Cc2c[nH]c3ccccc23)NC(=O)[C@H]([C@@H](C)CC)NC1=O [Compound 20] (Ac-ICIWQDWGEHSCT-NH2; disulfide 2-12) | > 7.00 | 7.23
7 | CC[C@H](C)[C@H](NC(C)=O)C(=O)N[C@H]1CSSC[C@@H](C(=O)N[C@@H](CO)C(N)=O)NC(=O)[C@H](CCCNC(=N)N)NC(=O)[C@H](Cc2c[nH]cn2)NC(=O)[C@H](CCC(=O)O)NC(=O)CNC(=O)[C@H](Cc2c[nH]c3ccccc23)NC(=O)[C@H](CC(=O)O)NC(=O)[C@H](CCC(N)=O)NC(=O)[C@H](Cc2c[nH]c3ccccc23)NC(=O)[C@H]([C@@H](C)CC)NC1=O [Compound 21] (Ac-ICIWQDWGEHRCS-NH2; disulfide 2-12) | > 7.00 | 7.11
8 | CC[C@H](C)[C@@H]1NC(=O)[C@@H](NC(=O)[C@H](Cc2ccccc2)NC(C)=O)CSSC[C@@H](C(=O)N[C@H](C(N)=O)[C@@H](C)O)NC(=O)[C@H](CCCNC(=N)N)NC(=O)[C@H](Cc2c[nH]cn2)NC(=O)[C@H](CCC(=O)O)NC(=O)CNC(=O)[C@H](Cc2c[nH]c3ccccc23)NC(=O)[C@H](CC(=O)O)NC(=O)[C@H](CCC(N)=O)NC(=O)[C@H](Cc2c[nH]c3ccccc23)NC1=O [Compound 23] (Ac-FCIWQDWGEHRCT-NH2; disulfide 2-12) | > 7.00 | –
9 | CC[C@H](C)[C@H](NC(C)=O)C(=O)N[C@H]1CSSC[C@@H](C(=O)N[C@H](C(=O)N[C@@H](CCC(=O)O)C(N)=O)[C@@H](C)O)NC(=O)[C@H](CCCNC(=N)N)NC(=O)[C@H](Cc2c[nH]cn2)NC(=O)[C@H](CCC(=O)O)NC(=O)CNC(=O)[C@H](Cc2c[nH]c3ccccc23)NC(=O)[C@H](CC(=O)O)NC(=O)[C@H](CCC(N)=O)NC(=O)[C@H](Cc2c[nH]c3ccccc23)NC(=O)[C@H]([C@@H](C)CC)NC1=O [Compound 26] (Ac-ICIWQDWGEHRCTE-NH2; disulfide 2-12) | > 7.00 | –
10 | CC[C@H](C)[C@H](NC(=O)[C@H](C)NC(=O)[C@H](CO)NC(=O)CNC(=O)[C@H](CCC(=O)O)NC(C)=O)C(=O)N[C@H]1CSSC[C@@H](C(=O)N[C@H](C(N)=O)[C@@H](C)O)NC(=O)[C@H](CCCNC(=N)N)NC(=O)[C@H](Cc2c[nH]cn2)NC(=O)[C@H](CCC(=O)O)NC(=O)CNC(=O)[C@H](Cc2c[nH]c3ccccc23)NC(=O)[C@H](CC(=O)O)NC(=O)[C@H](CCC(N)=O)NC(=O)[C@H](Cc2c[nH]c3ccccc23)NC(=O)[C@H]([C@@H](C)CC)NC1=O [Compound 29] (Ac-EGSAICIWQDWGEHRCT-NH2; disulfide 6-16) | > 7.00 | –
11 | CC[C@H](C)[C@@H]1NC(=O)[C@@H](NC(=O)[C@@H](NC(=O)[C@H](CCC(=O)O)NC(C)=O)[C@@H](C)CC)CSSC[C@@H](C(=O)N[C@H](C(=O)N[C@@H](CCC(=O)O)C(=O)NCC(=O)N[C@@H](CCC(=O)O)C(N)=O)[C@@H](C)O)NC(=O)[C@H](CCCNC(=N)N)NC(=O)[C@H](Cc2c[nH]cn2)NC(=O)[C@H](CCC(=O)O)NC(=O)CNC(=O)[C@H](Cc2c[nH]c3ccccc23)NC(=O)[C@H](CC(=O)O)NC(=O)[C@H](CCC(N)=O)NC(=O)[C@H](Cc2c[nH]c3ccccc23)NC1=O [Compound 34] (Ac-EICIWQDWGEHRCTEGE-NH2; disulfide 3-13) | > 6.60 | –
12 | CC[C@H](C)[C@@H]1NC(=O)[C@@H](NC(=O)[C@@H](NC(=O)[C@H](CCC(=O)O)NC(=O)CNC(=O)[C@H](CCC(=O)O)NC(C)=O)[C@@H](C)CC)CSSC[C@@H](C(=O)N[C@@H](CCC(=O)O)C(=O)NCC(=O)N[C@@H](CCC(=O)O)C(N)=O)NC(=O)[C@H](CCCNC(=N)N)NC(=O)[C@H](Cc2c[nH]cn2)NC(=O)[C@H](CCC(=O)O)NC(=O)CNC(=O)[C@H](Cc2c[nH]c3ccccc23)NC(=O)[C@H](CC(=O)O)NC(=O)[C@H](CCC(N)=O)NC(=O)[C@H](Cc2c[nH]c3ccccc23)NC1=O [Compound 35] (Ac-EGEICIWQDWGEHRCEGE-NH2; disulfide 5-15) | > 6.30 | –
